Results reported in patent US5616342A, “Emulsioin suitable for administering a poorly water-soluble photosensitizing compound and use thereof” (PDT, Inc., priority 1995, dated 1997).

Experiments:
[1] = general health / adverse events after drug-emulsion treatment (Example 4); format: in vivo, Fischer 344 rats; settings: i.v. bolus in emulsion plus red light, 30 days
Protocol: (§1) Fischer 344 rats, engrafted with transplantable, chemically-induced (FANFT) urothelial tumors, were treated with tin ethyl etiopurpurin (SnEt2) and red light (660 nm). SnEt2 was administered as a bolus injection via lateral tail vein, using the emulsion described by the present invention. Tumor response was assessed in groups of nine animals injected with one of four doses of drug and exposed to one of three different doses of light, as summarized in FIG. 1. Control animals received emulsion vehicle without drug. Animals were monitored for tumor re-growth, tissue changes at treatment site, and general health three times per week for a period of 30 days after light treatment.

[2] = SnEt2 drug solubility in MCT oil with excipient combinations (Example 1); settings: invention emulsion
Protocol: After incubating for 30 minutes at 55° C., the tubes stand overnight at room temperature (19°-22° C). The tubes are centrifuged to remove bulk precipitates, and supernatants are filtered through 0.45 μm nylon membrane to remove any undissolved drug. Aliquots of filtrate are then diluted in chloroform:isopropyl alcohol (1:1) for spectrophotometric determination of drug concentration (absorbance at 662 nm). Reference standards are prepared with known concentrations of SnEt2 in the same solvent.

[3] = system: transplantable, FANFT-induced, urothelial tumors; test: photodynamic treatment of transplantable FANFT-induced urothelial tumors with SnEt2 emulsion and red light (Example 4); format: in vivo, Fischer 344 rats
Protocol: as §1
By determining the number of tumor-free rats 30 days after each treatment, tumor dose-response curves for drug and light were generated, shown in FIG. 1.

[4] = Protocol: Mixtures of MCT oil, egg phospholipids, ethanol, and SnEt2 were incubated with different bile salts, all at 4.6 mM^1, under the same conditions described above in Example 1.
[5] = pH 8.0
Protocol: In particular, net electronegative charge (Zeta potential) on the emulsified oil droplets is measured by changes in electrophoretic mobility at pH 8.0 (Malvern Zetasizer 2c). […] A relationship between Zeta potential and physical stability of colloidal systems has been documented.

Compound | adverse clinical events [1] | deaths attributable to drug-emulsion treatment [1] | SnEt2 concentration delivered by the present invention relative to 0.08 mg/ml [2] | dose and light response by the tumor ([3]; four drug doses, three light doses, 30 days) | tumor treatment outcome ([3]; i.v. bolus in emulsion, red laser light 660 nm, 30 days after treatment) | SnEt2 Concentration [4] [mg/gm Oil] | SnEt2 Concentration Normalized [4] | effect on Zeta potential of phospholipid-stabilized emulsions [5]
CCOC(=O)C1=Cc2c3nc(cc4nc(cc5[n-]c(cc6[n-]c2c(C)c6CC)c(C)c5CC)C(C)=C4CC)[C@@H](C)[C@]13CC.[Cl-].[Cl-].[Sn] (racemic) [SnEt2, Tin ethyl etiopurpurin] | No adverse clinical events were observed | no deaths occurred | over ten times | A dose and light response by the tumor was demonstrated | effective in the treatment | 1.26 | 1.00 | 
C[C@H](CCC(=O)O)[C@H]1CC[C@H]2[C@@H]3[C@H](O)C[C@@H]4C[C@H](O)CC[C@]4(C)[C@H]3C[C@H](O)[C@]12C [sodium cholate] |  |  |  |  |  |  |  | increases the Zeta potential
